Measurements published in patent US20200138822A1, “TOPICAL COMPOSITIONS COMPRISING PENTOXIFYLLINE AND METHODS OF TREATMENT USING THE SAME” (priority 2018, published 2020).

What was measured:
[1] = times greater than PTX; cited from earlier work
[2] = system: BD patients; assay: Randomized, open-label clinical study: adverse events / safety; conditions: 14-day study
Procedure: (§1) A randomized, open-label, proof-of-concept clinical study was conducted under an FDA Investigational New Drug Application (IND). […] The CLC was administered orally as a pill and dosed as determined by the subject's physician. No less than every 48 hours, subjects' ulcers were photographed and examined using digital image processing to determine ulcer area, over a period of 14 days, which include daily collection of adverse events, ulcer number, and pain scores.
(§2) Inclusion criteria required the recent (<2 days) appearance of a new oral ulcer. Patients on immunosuppressant therapies were excluded from the study.
All adverse events were reviewed in real time by the treating physician investigator.

[3] = system: oral ulcers of BD patients; assay: Randomized, open-label clinical study: index ulcer healing (ulcer area by digital image processing); type: in vivo, human
Procedure: as §1, §2
Patients were contacted daily for 14 consecutive days and were examined in-person no less than every 48 hours except for weekends. On the first day of entry into the study, the largest ulcer was identified and photographed as the “index ulcer”; its location was recorded and it was subsequently photographed at every in-person visit. Photographs were made with a paper ruler showing millimeter graduations lain in the same plane as the ulcer itself. Graphical processing software was used to compute the ulcer area in square millimeters; this software was calibrated from the paper ruler image and required drawing a line around the image of the ulcer margin.
Then, the proportion of patients with undetectable index ulcer (defined as those with an ulcer area of less than 1 mm^2) at day 4 was compared. Lastly, the trend in mean ulcer area over 14 days was compared as well as the results' sensitivity to outliers.

[4] = system: oral ulcers of BD patients; assay: Randomized, open-label clinical study: daily average number of oral ulcers; type: in vivo, human; conditions: during the two-week treatment period; mean +/- SD
Procedure: as §1, §2
The total number of oral ulcers were also counted at each in-person visit, and the daily average number of oral ulcers were calculated during the treatment period.

[5] = Day 2, PTX+CLC n = 18, CLC n = 21
[6] = Day 4 clearance, undetectable = ulcer area less than 1 mm^2, n = 18 / n = 21

CC(O)CCCCn1c(=O)c2c(ncn2C)n(C)c1=O (stereo not shown) [Metabolite 1, 1-[5-hydroxyhexyl]-3,7-dimethylxanthine]
Plasma levels of metabolite relative to PTX [1]: five

COc1cc2c(c(OC)c1OC)-c1ccc(OC)c(=O)cc1[C@@H](NC(C)=O)CC2 [CLC, colchicine]
Serious adverse events [2]: No serious adverse events occurred | Dysgeusia - % of patients ([2]; adverse event): 0% | Dysgeusia - number of patients ([2]; adverse event): 0 | Limited dermal rashes - % of patients ([2]; adverse event): 29% | Limited dermal rashes - number of patients ([2]; adverse event): 6 | Nausea - % of patients ([2]; adverse event): 10% | Nausea - number of patients ([2]; adverse event): 2 | Vomiting - number of patients ([2]; adverse event): none | Patients with Index Ulcer Growth - % [3, 5]: (80%) | Patients with Index Ulcer Growth - Number [3, 5]: 16 | Patients with Index Ulcer Shrinkage - % [3, 5]: (19%) | Patients with Index Ulcer Shrinkage - Number [3, 5]: 4 | Patients with Index Ulcer Shrinkage - % ([3]; Day 2, PTX+CLC n = 18, CLC n = 21, listed as CLC-only): 19% | Patients with Remaining Ulcers - % ([3]; Day 4, n = 18 / n = 21): (71%) | Patients with Remaining Ulcers - Number ([3]; Day 4, n = 18 / n = 21): 15 | Patients with Undetectable Ulcers - % [3, 6]: (29%) | Patients with Undetectable Ulcers - Number [3, 6]: 6 | Patients with Undetectable Ulcers - % ([3]; Day 4 clearance, undetectable = ulcer area less than 1 mm^2, n = 18 / n = 21, listed as CLC-only): 29% | Mean index ulcer area by treatment group (trend) ([3]; FIG. 1, over 14 days from day zero): first growing then slowly decreasing | Daily average number of oral ulcers [4]: 1.89+/−1.36

Cn1cnc2c1c(=O)n(CCCC(=O)O)c(=O)n2C [Metabolite V, 1-[3-carboxypropyl]-3,7-dimethylxanthine]
Plasma levels of metabolite relative to PTX [1]: eight
